The source of these data is patent US20080051420A1, “New Compounds 317” (AstraZeneca AB, priority 2006, published 2008).

SMILES strings stand for the structures.

T1 sequence (P56817 22-460): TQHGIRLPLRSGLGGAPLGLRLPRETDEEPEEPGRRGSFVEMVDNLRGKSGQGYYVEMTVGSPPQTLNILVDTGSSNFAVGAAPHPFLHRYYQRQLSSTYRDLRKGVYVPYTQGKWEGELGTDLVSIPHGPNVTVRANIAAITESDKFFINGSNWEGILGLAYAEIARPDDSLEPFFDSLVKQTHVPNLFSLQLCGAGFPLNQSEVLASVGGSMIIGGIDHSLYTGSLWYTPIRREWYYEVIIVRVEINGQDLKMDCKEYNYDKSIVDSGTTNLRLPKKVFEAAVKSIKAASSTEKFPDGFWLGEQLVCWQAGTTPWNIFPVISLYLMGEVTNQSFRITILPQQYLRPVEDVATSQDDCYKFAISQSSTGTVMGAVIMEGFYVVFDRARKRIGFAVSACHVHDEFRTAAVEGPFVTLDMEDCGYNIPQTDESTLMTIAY

The assay concerns the target T1, human β-secretase (Homo sapiens, UniProt P56817).
T1 construct: The soluble part of the human β-secretase (AA 1-AA 460) was cloned; made in house
The assay can be described thus: TR-FRET assay (β-secretase enzyme, sBACE-Fc). Format: biochemical. The note with it: read-out: IC50 in TR-FRET assay. As to the method: The enzyme used in the IGEN Cleavage-, Fluorescent-, TR-FRET- and BiaCore assays is described as follows:
The soluble part of the human β-secretase (AA 1-AA 460) was cloned into the ASP2-F10-1-IRES-GFP-neoK mammalian expression vector. The gene was fused to the Fc domain of IgG1 (affinity tag) and stably cloned into HEK 293 cells. Purified sBACE-Fc is stored in Tris buffer, pH 9.2 and has a purity of 95%.
Enzyme was diluted to 6 μg/mL and the substrate (Europium)[…](Qsy7) to 200 nM in reaction buffer (NaAcetate, chaps, triton x-100, EDTA pH 4.5). Compounds were diluted to the desired concentration in dimethyl sulfoxide (final dimethyl sulfoxide concentration in assay is 5%). […] Enzyme (9 μL) and 1 μL of compound in dimethyl sulfoxide was added to the plate, mixed and pre-incubated for 10 min. Substrate (10 μL) was added and the reaction proceeded in the dark for 15 min at RT. The reaction was stopped with the addition of 7 μL NaAcetate, pH 9. […] The dimethyl sulfoxide control defined the 100% activity level and 0% activity was defined by exclusion of the enzyme (using reaction buffer instead).
For `NC1=NC(c2ccc(OS(=O)(=O)C3CC3)cc2)(c2cccc(-c3cc(Cl)ccc3Cl)c2)C2=NCCCN12` (stereo not drawn) [Example 72, 4-[6-Amino-8-(2′,5′-dichlorobiphenyl-3-yl)-2,3,4,8-tetrahydroimidazo[1,5-a]pyrimidin-8-yl]phenyl cyclopropane sulfonate 0.5 acetate], the half-inhibitory concentration (IC50) amounted to 644 nM. Take `CCCS(=O)(=O)Oc1cccc(C2(c3cccc(-c4cc(Cl)cc(Cl)c4)c3)N=C(N)N3CCCN=C32)c1` (stereo not drawn) [Example 123, 3-[6-Amino-8-(3′,5′-dichlorobiphenyl-3-yl)-2,3,4,8-tetrahydroimidazo[1,5-a]pyrimidin-8-yl]phenyl propane-1-sulfonate]: the IC50 came to 106 nM. Consider `NC1=NC(c2ccc(OS(=O)(=O)C3CC3)cc2)(c2cccc(-c3cccnc3F)c2)C2=NCCCN12` (stereo not drawn) [Example 69, 4-{6-Amino-8-[3-(2-fluoropyridin-3-yl)phenyl]-2,3,4,8-tetrahydroimidazo[1,5-a]pyrimidin-8-yl}phenyl cyclopropane sulfonate 0.75 acetate], for which the IC50 is 313 nM.

For `CS(=O)(=O)Oc1ccc(C2(c3cccc(-c4cccc(OC(F)(F)F)c4)c3)N=C(N)N3CCCN=C32)cc1` (stereo not drawn) [Example 41, 4-{6-Amino-8-[3′-(trifluoromethoxy)biphenyl-3-yl]-2,3,4,8-tetrahydroimidazo[1,5-a]pyrimidin-8-yl}phenyl methanesulfonate 0.5 acetate], the IC50 stood at 981 nM. The value for `CC(C)S(=O)(=O)Oc1ccc(C2(c3cccc(-c4cccnc4F)c3)N=C(N)N3CCN=C32)cc1` (stereo not drawn) [Example 84, 4-{5-Amino-7-[3-(2-fluoropyridin-3-yl)phenyl]-2,7-dihydro-3H-imidazo[1,5-a]imidazol-7-yl}phenyl propane-2-sulfonate 0.75 acetate] was 2510 nM; that for `COc1cccc(-c2cccc(C3(c4ccc(OS(=O)(=O)C5CC5)cc4)N=C(N)N4CCCN=C43)c2)c1` (stereo not drawn) [Example 65, 4-[6-Amino-8-(3′-methoxybiphenyl-3-yl)-2,3,4,8-tetrahydroimidazo[1,5-a]pyrimidin-8-yl]phenyl cyclopropane sulfonate 0.75 acetate] was 248 nM; that for `COc1cncc(-c2cccc(C3(c4ccc(OS(C)(=O)=O)cc4)N=C(N)N4CCCN=C43)c2)c1` (stereo not drawn) [Example 34, 4-{6-Amino-8-[3-(5-methoxypyridin-3-yl)phenyl]-2,3,4,8-tetrahydroimidazo[1,5-a]pyrimidin-8-yl}phenyl methanesulfonate acetate] was 161 nM.

In the case of `NC1=NC(c2ccc(OS(=O)(=O)C3CC3)cc2)(c2cccc(-c3cccc(Cl)c3)c2)C2=NCCCN12` (stereo not drawn) [Example 67, 4-[6-Amino-8-(3′-chlorobiphenyl-3-yl)-2,3,4,8-tetrahydroimidazo[1,5-a]pyrimidin-8-yl]phenyl cyclopropane sulfonate 0.75 acetate], the half-inhibitory concentration (IC50) came out at 61 nM. Then `NC1=NC(c2cccc(OS(=O)(=O)C(F)(F)F)c2)(c2cccc(-c3cc(Cl)cnc3F)c2)C2=NCCCN12` (stereo not drawn) [Example 131, 3-{6-Amino-8-[3-(5-chloro-2-fluoropyridin-3-yl)phenyl]-2,3,4,8-tetrahydroimidazo[1,5-a]pyrimidin-8-yl}phenyl trifluoromethanesulfonate], with 538 nM; and `COc1cccc(-c2cccc(C3(c4ccc(OS(C)(=O)=O)cc4)N=C(N)N4CCN=C43)c2)c1` (stereo not drawn) [Example 74, 4-[5-Amino-7-(3′-methoxybiphenyl-3-yl)-2,7-dihydro-3H-imidazo[1,5-a]imidazol-7-yl]phenyl methanesulfonate 0.25 acetate], with 449 nM. As to `NC1=NC(c2cccc(OS(=O)(=O)C(F)(F)F)c2)(c2cccc(-c3cncnc3)c2)C2=NCCCN12` (stereo not drawn) [Example 132, 3-[6-Amino-8-(3-pyrimidin-5-ylphenyl)-2,3,4,8-tetrahydroimidazo[1,5-a]pyrimidin-8-yl]phenyl trifluoromethanesulfonate], the IC50 was 375 nM.

Regarding `CCCS(=O)(=O)Oc1ccc(C2(c3cccc(-c4cccc(Cl)c4F)c3)N=C(N)N3CCCN=C32)cc1` (stereo not drawn) [Example 62, 4-[6-Amino-8-(3′-chloro-2′-fluorobiphenyl-3-yl)-2,3,4,8-tetrahydroimidazo[1,5-a]pyrimidin-8-yl]phenyl propane-1-sulfonate 0.75 acetate], the IC50 is 254 nM. Consider `CS(=O)(=O)Oc1ccc(C2(c3cccc(-c4cc(Cl)cnc4F)c3)N=C(N)N3CCN=C32)cc1` (stereo not drawn) [Example 79, 4-{5-Amino-7-[3-(5-chloro-2-fluoropyridin-3-yl)phenyl]-2,7-dihydro-3H-imidazo[1,5-a]imidazol-7-yl}phenyl methanesulfonate 0.5 acetate], for which the IC50 is 436 nM. The value for `CCCS(=O)(=O)Oc1cccc(C2(c3cccc(-c4cncnc4)c3)N=C(N)N3CCCN=C32)c1` (stereo not drawn) [Example 125, 3-[6-Amino-8-(3-pyrimidin-5-ylphenyl)-2,3,4,8-tetrahydroimidazo[1,5-a]pyrimidin-8-yl]phenyl propane-1-sulfonate] was 51 nM.

For the compound `CC(C)S(=O)(=O)Oc1ccc(C2(c3cccc(-c4cccnc4)c3)N=C(N)N3CCN=C32)cc1` (stereo not drawn) [Example 83, 4-[5-Amino-7-(3-pyridin-3-ylphenyl)-2,7-dihydro-3H-imidazo[1,5-a]imidazol-7-yl]phenyl propane-2-sulfonate 0.75 acetate], the IC50 was 2510 nM. The value for `CCCS(=O)(=O)Oc1ccc(C2(c3cccc(-c4cccnc4F)c3)N=C(N)N3CCCN=C32)cc1` (stereo not drawn) [Example 59, 4-{6-Amino-8-[3-(2-fluoropyridin-3-yl)phenyl]-2,3,4,8-tetrahydroimidazo[1,5-a]pyrimidin-8-yl}phenyl propane-1-sulfonate acetate] was 221 nM.

Take `COc1cccc(-c2cccc(C3(c4cccc(OS(=O)(=O)C5CC5)c4)N=C(N)N4CCCN=C43)c2)c1` (stereo not drawn) [Example 127, 3-[6-Amino-8-(3′-methoxybiphenyl-3-yl)-2,3,4,8-tetrahydroimidazo[1,5-a]pyrimidin-8-yl]phenyl cyclopropanesulfonate]: the IC50 stood at 177 nM.

`CS(=O)(=O)Oc1cccc(C2(c3cccc(-c4cc(Cl)cnc4F)c3)N=C(N)N3CCCN=C32)c1` (stereo not drawn) [Example 121, 3-{6-Amino-8-[3-(5-chloro-2-fluoropyridin-3-yl)phenyl]-2,3,4,8-tetrahydroimidazo[1,5-a]pyrimidin-8-yl}phenyl methanesulfonate]: the IC50 amounted to 893 nM. As for `NC1=NC(c2cccc(Br)c2)(c2cccc(OS(=O)(=O)C(F)(F)F)c2)C2=NCCCN12` (stereo not drawn) [Example 113, 3-[6-Amino-8-(3-bromophenyl)-2,3,4,8-tetrahydroimidazo[1,5-a]pyrimidin-8-yl]phenyl trifluoromethanesulfonate], the concentration for half-maximal inhibition (IC50) is 1200 nM.

In the case of `NC1=NC(c2ccccc2)(c2cccc(Br)c2)C2=NCCCN12` (stereo not drawn) [Example 98, 8-(3-Bromophenyl)-8-phenyl-2,3,4,8-tetrahydroimidazo[1,5-a]pyrimidin-6-amine], the IC50 came to 727 nM. `COc1cccc(-c2cccc(C3(c4ccc(OS(C)(=O)=O)cc4)N=C(N)N4CCCN=C43)c2)c1` (stereo not drawn) [Example 31, 4-[6-Amino-8-(3′-methoxybiphenyl-3-yl)-2,3,4,8-tetrahydroimidazo[1,5-a]pyrimidin-8-yl]phenyl methanesulfonate acetate]: the IC50 was 156 nM. In the case of `NC1=NC(c2cccc(OS(=O)(=O)C(F)(F)F)c2)(c2cccc(-c3cccc(Cl)c3)c2)C2=NCCCN12` (stereo not drawn) [Example 115, 3-[6-Amino-8-(3′-chlorobiphenyl-3-yl)-2,3,4,8-tetrahydroimidazo[1,5-a]pyrimidin-8-yl]phenyl trifluoromethanesulfonate], the IC50 stood at 106 nM. As for `CS(=O)(=O)Oc1cccc(C2(c3cccc(-c4cccnc4)c3)N=C(N)N3CCCN=C32)c1` (stereo not drawn) [Example 119, 3-[6-Amino-8-(3-pyridin-3-ylphenyl)-2,3,4,8-tetrahydroimidazo[1,5-a]pyrimidin-8-yl]phenyl methanesulfonate], the IC50 was found to be 754 nM.

On to `COc1cccc(-c2cccc(C3(c4cccc(OS(C)(=O)=O)c4)N=C(N)N4CCCN=C43)c2)c1` (stereo not drawn) [Example 118, 3-[6-Amino-8-(3′-methoxybiphenyl-3-yl)-2,3,4,8-tetrahydroimidazo[1,5-a]pyrimidin-8-yl]phenyl methanesulfonate], for which the IC50 is 645 nM. In the case of `NC1=NC(c2ccc(OS(=O)(=O)C(F)(F)F)cc2)(c2cccc(-c3cccc(Cl)c3)c2)C2=NCCN12` (stereo not drawn) [Example 90, 4-[5-Amino-7-(3′-chlorobiphenyl-3-yl)-2,7-dihydro-3H-imidazo[1,5-a]imidazol-7-yl]phenyl trifluoromethanesulfonate 0.75 acetate], the IC50 stood at 113 nM.

With `CCCS(=O)(=O)Oc1ccc(C2(c3cccc(-c4cccc(OC)c4)c3)N=C(N)N3CCCN=C32)cc1` (stereo not drawn) [Example 55, 4-[6-Amino-8-(3′-methoxybiphenyl-3-yl)-2,3,4,8-tetrahydroimidazo[1,5-a]pyrimidin-8-yl]phenyl propane-1-sulfonate 0.75 acetate], the IC50 was 139 nM. For the compound `CS(=O)(=O)Oc1ccc(C2(c3cccc(-c4cccnc4)c3)N=C(N)N3CCN=C32)cc1` (stereo not drawn) [Example 77, 4-[5-Amino-7-(3-pyridin-3-ylphenyl)-2,7-dihydro-3H-imidazo[1,5-a]imidazol-7-yl]phenyl methanesulfonate 0.5 acetate], the IC50 turned out to be 1530 nM.
